Source: patent US20200061092A1, “METHODS AND COMPOSITIONS FOR TREATING DISORDERS ASSOCIATED WITH MUSCLE WEAKNESS” (priority 2018, published 2020)

Experiments:
[1] = tested on: F-α-DG (functionally glycosylated α-DG); assay: Immunohistochemical staining of F-α-DG with IIH6C4 antibody in muscles of ribitol-treated P448L mice; type: in vivo, mouse
Description: Ribitol was purchased from Sigma (A5502 Adonitol, ≥98%, Sigma, St. Louis) and dissolved in drinking water to the final concentration of 5% or 10%. […] mice aged at 4 weeks were treated with 5% ribitol drinking water for 1 month and […] mice aged at 7 weeks were treated with 5% ribitol drinking water for 3 months and 6 months. All the mice were randomly assigned to either treatment or control groups. And a minimum number of 4 mice were used for each group. No animal was excluded. […] female breeders were given 10% ribitol in drinking water during pregnancy, and pups continued to be treated with 10% ribitol in drinking water until they were euthanized at 19 weeks of age. Untreated age-matched […] and wild-type C57BL/6 mice were used as controls. The animals were terminated at the end of each treatment time point and tissues including heart, diaphragm, TA, quadriceps, liver, spleen and kidney were collected for analyses. […] For immunohistochemical detection of functionally glycosylated α-DG, […] of thickness cross sections of untreated and C57 control, as well as tissues from treated cohorts were included in each slide. Slides were first fixed in ice cold Ethanol:Acetic acid (1:1) for 1 min, blocked with 10% normal goat serum (NGS) in […]-buffer saline (TBS) for 30 min at room temperature, and incubated overnight at 4° C. with primary mouse monoclonal antibody IIH6C4 (EMD Millipore) (1:500) against α-DG. Negative controls received 10% normal goat serum in 1×TBS only. Sections were washed and incubated with secondary AlexaFLuor 488 goat anti-mouse IgM (Invitrogen) (1:500) at room temperature for 2 hr. […] Immunofluorescence was visualized using an Olympus BX51/BX52 fluorescence microscope (Opelco) and images were captured using the Olympus DP70 digital camera system (Opelco). Slides were examined in a blinded manner by the investigator.

[2] = tested on: ribitol, ribitol-5P and CDP-ribitol levels in heart and quadriceps; assay: LC/MS-MS quantification of ribitol, ribitol-5P and CDP-ribitol in muscle tissues of P448L mice; type: in vivo, mouse; conditions: 5% ribitol 1 month
Description: Ribitol was purchased from Sigma (A5502 Adonitol, ≥98%, Sigma, St. Louis) and dissolved in drinking water to the final concentration of 5% or 10%. […] mice aged at 4 weeks were treated with 5% ribitol drinking water for 1 month and […] mice aged at 7 weeks were treated with 5% ribitol drinking water for 3 months and 6 months. All the mice were randomly assigned to either treatment or control groups. And a minimum number of 4 mice were used for each group. No animal was excluded. […] female breeders were given 10% ribitol in drinking water during pregnancy, and pups continued to be treated with 10% ribitol in drinking water until they were euthanized at 19 weeks of age. Untreated age-matched […] and wild-type C57BL/6 mice were used as controls. The animals were terminated at the end of each treatment time point and tissues including heart, diaphragm, TA, quadriceps, liver, spleen and kidney were collected for analyses. Ribitol was purchased from Sigma (A5502). […] The supernatants were removed, transferred to individual wells of 96-well plate and analyzed by LC/MS-MS. […] The metabolites were analyzed using electrospray ionization mass spectrometry operated in positive ion mode, ESI+. Compounds concentration in tissue samples were determined based on standard curves prepared by serial dilutions (200-0.01 μM) of each of the compound in MeOH:ACN (1:1).

[3] = tested on: FKRP and LARGE transcripts; assay: Quantitative real-time PCR of FKRP and LARGE transcripts in muscles of P448L mice; type: in vivo, mouse; conditions: 5% ribitol, 3 months (FIG. 11b); cardiac muscle, limb muscle, diaphragm
Description: Tissues were collected from heart, diaphragm and tibialis anterior. RNA was extracted using TRIzol (Invitrogen) following the supplied protocol. Final RNA pellet was re-suspended in 20 μl RNAse-nuclease free water. Final RNA concentration was determined using Nanodrop 2000c. One μg of RNA was subsequently converted to cDNA using the High-Capacity RNA-to-cDNA™ Kit (Applied Biosystems) following the supplied protocol. cDNA was then used for quantitative real-time PCR using the mouse FKRP-FAM (Mm00557870_m1) and LARGE-FAM (Mm00521885 ml) taqman assay with primer limited GAPDH-VIC (Mm99999915_g1) as the internal control and TaqMan® Universal Master Mix II, with UNG (Life Technologies). […] Results of FKRP and LARGE transcript were calculated and expressed as 2^-ΔΔCt and compared across tissues and animals.

FKRP P448L mutant mice = assay: Histopathological and morphometric analysis (H&E, Masson's Trichrome) of muscles of P448L mice; type: in vivo, mouse
Description: Ribitol was purchased from Sigma (A5502 Adonitol, ≥98%, Sigma, St. Louis) and dissolved in drinking water to the final concentration of 5% or 10%. […] mice aged at 4 weeks were treated with 5% ribitol drinking water for 1 month and […] mice aged at 7 weeks were treated with 5% ribitol drinking water for 3 months and 6 months. All the mice were randomly assigned to either treatment or control groups. And a minimum number of 4 mice were used for each group. No animal was excluded. […] female breeders were given 10% ribitol in drinking water during pregnancy, and pups continued to be treated with 10% ribitol in drinking water until they were euthanized at 19 weeks of age. Untreated age-matched […] and wild-type C57BL/6 mice were used as controls. The animals were terminated at the end of each treatment time point and tissues including heart, diaphragm, TA, quadriceps, liver, spleen and kidney were collected for analyses. Frozen tissues were processed for hematoxylin and eosin (H&E) and Masson's Trichrome staining following standard procedures. Muscle cross-sectional fiber equivalent diameter was determined from tibialis anterior and quadriceps stained with H&E using MetaMorph v7.7 Software (Molecular Devices). Percentage of centrally nucleated myofibers were manually quantified from the same tissue sections stained with H&E. Fibrotic area represented by blue staining in the Masson's Trichrome stained sections was quantified from heart, diaphragm, tibialis anterior and quadriceps using ImageJ software. For all the morphometric analyses, a total of 300 to 400 fibers from two representative 20× magnification images per each muscle per animal were used.

[4] = tested on: muscular dystrophy caused by FKRP mutations; assay: Ribitol/ribose supplementation in animal model of FKRP mutation muscular dystrophy; type: in vivo; conditions: supplement via drinking water
[5] = 10% ribitol from pregnancy to 19 weeks

OC[C@@H](O)[C@@H](O)[C@@H](O)CO [ribitol]
F-α-DG signal by IIH6C4 immunohistochemistry ([1]; 5% ribitol in drinking water, 1 month, 4-week-old P448L mice, heart, diaphragm, limb muscles): visibly increased F-α-DG | F-α-DG levels by IIH6C4 immunofluorescence ([1]; 5% ribitol in drinking water, 3 and 6 months, from 7 weeks of age, all muscles): clear increase in the levels of F-α-DG | Expression of F-α-DG by immunohistochemistry ([1]; 10% ribitol in drinking water from pregnancy to 19 weeks of age): detected in all skeletal muscles and in the cardiac muscle | Levels of ribitol, ribitol-5P and CDP-ribitol vs untreated P448L ([2]; heart and quadricep): increased levels | CDP-ribitol levels, treated vs untreated ([2]; heart and quadriceps): at least 4 fold | FKRP and LARGE transcript levels, treated vs untreated [3]: No statistically significant difference | Fibrotic area in cardiac muscle vs untreated (FKRP P448L mutant mice; 5% ribitol, 3 and 6 months): significant reduction | Number of fibers with small diameters (TA and quadriceps) (FKRP P448L mutant mice; 5% ribitol, 3 and 6 months): statistically significant decrease | Percentage of CNF (TA and quadriceps) vs untreated (FKRP P448L mutant mice; 5% ribitol, 3 and 6 months): No significant difference | Areas of fibrotic tissue (Masson's Trichrome) vs untreated (FKRP P448L mutant mice; 5% ribitol, 3 and 6 months, limb muscles): significantly decreased | Fibrotic tissue in diaphragm (% of tissue cross-section area) (FKRP P448L mutant mice; 5% ribitol, 3 month treatment): 11% | Fibrotic tissue in diaphragm (% of tissue cross-section area) (FKRP P448L mutant mice; 5% ribitol, 6 month treatment): 18% | Centrally nucleated fibers (CNF) in TA vs untreated (FKRP P448L mutant mice; [5]): significantly fewer | Fibrosis in cardiac muscle and diaphragm (FKRP P448L mutant mice; [5]): reduction in fibrosis was significant in cardiac muscle, and most prominent in the diaphragm | Disease pathology of muscular dystrophy caused by FKRP mutations [4]: diminish disease pathology
